Reference: US3988462A (priority 1972, dated 1976)
In brackets after ≈: the same amount, converted by molar mass. Read-outs that look alike come from different tables or passages of the source.

How the values were obtained:
[1] = system: influenza virus-A2 /Kumamoto; assay type: in vivo, mice
[2] = system: Staphylococcus aureus 209P; experiment: microbe, parasite or virus in culture; assay type: cell-based; conditions: read-out: Minimum inhibitory concentration
Trychophyton rubrum = experiment: microbe, parasite or virus in culture; assay type: cell-based; conditions: read-out: Minimum inhibitory concentration
Mycoplasma pneumoniae = experiment: microbe, parasite or virus in culture; assay type: cell-based; conditions: read-out: Minimum inhibitory concentration
[3] = system: Brettanomyces anomalus IFO 0648; experiment: Antimicrobial activity (Table III); assay type: cell-based; conditions: IFO0648, Malt Agar (M.A.), read-out: Minimum inhibitory concentration
Procedure: (§1) A solution containing Antibiotic TS-885 was prepared as follows to determine the biological activity of Antibiotic TS-885. A 100 mg amount of 3-(5,7-dimethyl-2-hydroxy-4-oxo-6,8-decadienyl)-glutarimide (Antibiotic TS-885) was dissolved in a mixture of 0.6 ml of dimethyl-sulfoxide and 0.02 ml of polyoxyethylene sorbitane monolaurate (EO : 20). A 1.0 ml amount of a stirred saline solution (0.01 M phosphate buffered saline, pH 7.2) was added to the mixture to form a uniform solution which was followed by the addition of 48 ml of the saline solution. By this procedure a stock solution of Antibiotic TS-885 having a concentration of 2 mg/ml was prepared. The stock solution was diluted with the buffer solution for the following tests.
(§2) The antimicrobial spectra were observed by the pulp disc diffusion method and the agar streak method, and the results are shown in Tables II and III.

Candida alibicans = experiment: Antimicrobial activity (Table III); assay type: cell-based; conditions: Sabouraud's agar (S.A.), read-out: Minimum inhibitory concentration
Procedure: as §1, §2

[4] = system: Cryptococcus albidus IFO 0378; experiment: Antimicrobial activity (Table III); assay type: cell-based; conditions: Naganishia albida, IFO0378; Malt Agar (M.A.); read-out: Minimum inhibitory concentration
Procedure: as §1, §2

[5] = system: Hansenula anomala IFO 0118; experiment: Antimicrobial activity (Table III); assay type: cell-based; conditions: IFO0118, Malt Agar (M.A.), read-out: Minimum inhibitory concentration
Procedure: as §1, §2

[6] = system: Phodotorula glutinis IFO 0754; experiment: Antimicrobial activity (Table III); assay type: cell-based; conditions: Malt Agar (M.A.); read-out: Minimum inhibitory concentration
Procedure: as §1, §2

R. rubra IFO 0001 = experiment: Antimicrobial activity (Table III); assay type: cell-based; conditions: Malt Agar (M.A.); read-out: Minimum inhibitory concentration
Procedure: as §1, §2

[7] = system: Saccharomyces fragilis IAM 7160; experiment: Antimicrobial activity (Table III); assay type: cell-based; conditions: IAM7160, Malt Agar (M.A.), read-out: Minimum inhibitory concentration
Procedure: as §1, §2

[8] = system: Saccharomyces rosei AHU 3174; experiment: Antimicrobial activity (Table III); assay type: cell-based; conditions: Torulaspora delbrueckii, AHU3174; Malt Agar (M.A.); read-out: Minimum inhibitory concentration
Procedure: as §1, §2

[9] = system: Saccharomyces sake HUT 7119; experiment: Antimicrobial activity (Table III); assay type: cell-based; conditions: HUT7119, Malt Agar (M.A.), read-out: Minimum inhibitory concentration
Procedure: as §1, §2

Torula rubra var alpa = experiment: Antimicrobial activity (Table III); assay type: cell-based; conditions: Malt Agar (M.A.), read-out: Minimum inhibitory concentration
Procedure: as §1, §2

Candida utilis IFO 0396 = experiment: microbe, parasite or virus in culture; assay type: cell-based; conditions: Williopsis jadinii, IFO0396; read-out: Minimum inhibitory concentration
Candida tropicalis = experiment: microbe, parasite or virus in culture; assay type: cell-based; conditions: read-out: Minimum inhibitory concentration
[10] = system: Candida parapsiiosis IFO 0708; experiment: microbe, parasite or virus in culture; assay type: cell-based; conditions: IFO0708, read-out: Minimum inhibitory concentration
[11] = Cytotoxicity, cylinder method; assay type: cell-based; conditions: read-out: Minimum Inhibitory Concentration, cylinder method
Procedure: as §1
(§3) The cytotoxicity of Antibiotic TS-885 against various tissue culture cells was observed by the following two methods:
a. a cylinder method (on a thin seed plate)
a. A 10 ml amount of a cell suspension (3 × 10^5 cells/ml) was seeded in a petri dish having a diameter of 90 mm. The plates were incubated in a CO2 incubator at 37° C.
(§4) After 24 hours, the medium was removed and the plates were overlaid with 5 ml of an agar medium and one cylinder was placed on the medium. A 0.25 ml amount of a test sample was placed in the cylinder. After maintaining the plates for 2 hours at room temperature to diffuse Antibiotic TS-885 into the agar, the plate was incubated in the CO2 incubator at 37° C. After 48 hours, the cytotoxic effect of Antibiotic TS-885 was determined by the size of the diameter of the growth inhibitory zone around the cylinder. (2) In the tube dilution method, 2 × 10^5 cells were inoculated into a small test tube, and the tubes were incubated at 37° C for 24 hours. Solutions containing various concentrations of Antibiotic TS-885 were added to tubes of the cells and reincubated at […]. After 48 hours, the degenerated cells were microscopically observed.

[12] = Cytotoxicity, tube dilution method; assay type: cell-based; conditions: read-out: Minimum Inhibitory Concentration, tube dilution method
Procedure: as §1, §3
b. a tube dilution method
as §4

poliovirus [13] = assay type: cell-based
poliovirus [14] = experiment: microbe, parasite or virus in culture; assay type: cell-based
[15] = system: Vesicular stomatitis virus; experiment: microbe, parasite or virus in culture; assay type: cell-based
[16] = system: mouse ascites tumor cells (Sarcoma 180); experiment: Antitumor effect in mice; assay type: in vivo; conditions: intraperitoneally, once daily for six days
Procedure: 1,000,000 mouse ascites tumor cells (Sarcoma 180) were transplanted intraperitoneally into mice. 24 Hours after the mice were treated with the transplanted tumor cells, the mice were injected with various doses of the antibiotic once daily for six days intraperitoneally. […] It is that the life span of the antibiotic treated mice was prolonged.

[17] = Toxicity in mice, repeated intravenous administration; assay type: in vivo; conditions: 20 mg/kg per day intravenous, once daily for 10 days (total 200 mg/kg)
Solubility = assay type: physicochemical
bacteria = assay type: cell-based
mycoplasma = assay type: cell-based
yeasts = assay type: cell-based
[18] = Serum concentration after intravenous injection in mice; conditions: mouse
[19] = cited from earlier work
[20] = chicken, chick embryo fibroblast cells, MEM medium
[21] = human, hela s3 cells, YLE medium
[22] = monkey, monkey kidney cells, MEM medium
[23] = Enterovirus C, read-out: Diameter of plaque free zone
[24] = Vesicular stomatitis virus, in Gallus gallus, read-out: Diameter of plaque free zone

## NC12CC3CC(CC(C3)C1)C2 [Amantadine, 1,Adamantylamine, reference compound]
[1]; 20 mg/kg, survival day 7
  Survival / treated × 100 %: 100%
[1]; 20 mg/kg, survival day 10
  Survival / treated × 100 %: 60%
[1]; 20 mg/kg, survival day 13
  Survival / treated × 100 %: 10%
[1]; 20 mg/kg, survival day 15
  Survival / treated × 100 %: 0%
[1]; 20 mg/kg, survival day 20
  Survival / treated × 100 %: 0%

## CC=CC(C)=CC(C)C(=O)CC(O)CC1CC(=O)NC(=O)C1 (stereo not shown) [Antibiotic TS-885, 3-(5,7-dimethyl-2-hydroxy-4-oxo-6,8-decadienyl)-glutarimide]
[2]
  MIC: > 1000 µg/mL
Trychophyton rubrum
  MIC: 1000 µg/mL (≈ 3250 µM)
Mycoplasma pneumoniae
  MIC: > 1000 µg/mL
[3]
  MIC: > 100 µg/mL
Candida alibicans
  MIC: > 100 µg/mL
[4]
  MIC: 4 µg/mL (≈ 13 µM)
[5]
  MIC: 20 µg/mL (≈ 65.1 µM)
[6]
  MIC: 100 µg/mL (≈ 325 µM)
R. rubra IFO 0001
  MIC: 20 µg/mL (≈ 65.1 µM)
[7]
  MIC: 20 µg/mL (≈ 65.1 µM)
[8]
  MIC: 100 µg/mL (≈ 325 µM)
[9]
  MIC: 4 µg/mL (≈ 13 µM)
Torula rubra var alpa
  MIC: 4 µg/mL (≈ 13 µM)
Candida utilis IFO 0396
  MIC: 100 µg/mL (≈ 325 µM)
Candida tropicalis
  MIC: 100 µg/mL (≈ 325 µM)
[10]
  MIC: > 100 µg/mL
[11]; [20]
  MCC at 48 h: 0.5 µg/mL
[11]; [21]
  MCC at 48 h: 0.2 µg/mL
[11]; [22]
  MCC at 48 h: 0.2 µg/mL
[11]; mouse, l-cells, YLE medium
  MCC at 48 h: 0.25 µg/mL
[12]; [20]
  MCC at 48 h: 1 µg/mL
[12]; [21]
  MCC at 48 h: 0.4 µg/mL
[12]; human, p3 hr-1 cells, MEM medium
  MCC at 48 h: 0.4 µg/mL
[12]; [22]
  MCC at 48 h: 0.4 µg/mL
[12]; mouse, l-cells, YLE medium
  MCC at 48 h: 0.5 µg/mL
Poliovirus [13]; 0.5 mcg/ml
  Antiviral effect: Toxic
Poliovirus [13]; 1 mcg/ml
  Antiviral effect: Toxic
Poliovirus [13]; 10 mcg/ml
  Antiviral effect: Toxic
Poliovirus [14]; 12.5 mcg/ml
  Antiviral effect: toxic
Poliovirus [14]; 25 mcg/ml
  Antiviral effect: toxic
Poliovirus [14]; [23]
  zone of inhibition at 0.5 µg/mL: 15 mm
  zone of inhibition at 1 µg/mL: 19.4 mm
  zone of inhibition at 5 µg/mL: 25 mm
  zone of inhibition at 6.25 µg/mL: 28.4 mm
  zone of inhibition at 12.5 µg/mL: 29.2 mm
  zone of inhibition at 25 µg/mL: 36 mm
[15]; 20 mcg/ml
  Antiviral effect: toxic
[15]; 62.5 mcg/ml
  Antiviral effect: toxic
[15]; 100 mcg/ml
  Antiviral effect: toxic
[15]; 125 mcg/ml
  Antiviral effect: toxic
[15]; 250 mcg/ml
  Antiviral effect: toxic
[15]; [24]
  zone of inhibition at 0.3 µg/mL: 15.4 mm
  zone of inhibition at 0.6 µg/mL: 17.4 mm
  zone of inhibition at 1.25 µg/mL: 18.1 mm
  zone of inhibition at 2.5 µg/mL: 18.9 mm
  zone of inhibition at 5 µg/mL: 19.6 mm
  zone of inhibition at 10 µg/mL: 22.9 mm
  zone of inhibition at 20 µg/mL: 26.2 mm
  zone of inhibition at 62.5 µg/mL: 28.8 mm
  zone of inhibition at 100 µg/mL: 31.7 mm
  zone of inhibition at 125 µg/mL: 33.2 mm
  zone of inhibition at 250 µg/mL: 42 mm
[1]; 7 mg/kg intraperitoneally, survival day 7
  Survival / treated × 100 %: 100%
[1]; 7 mg/kg intraperitoneally, survival day 10
  Survival / treated × 100 %: 60%
[1]; 7 mg/kg intraperitoneally, survival day 13
  Survival / treated × 100 %: 35%
[1]; 7 mg/kg intraperitoneally, survival day 15
  Survival / treated × 100 %: 35%
[1]; 7 mg/kg intraperitoneally, survival day 20
  Survival / treated × 100 %: 35%
[1]; 22 mg/kg intraperitoneally, survival day 7
  Survival / treated × 100 %: 100%
[1]; 22 mg/kg intraperitoneally, survival day 10
  Survival / treated × 100 %: 80%
[1]; 22 mg/kg intraperitoneally, survival day 13
  Survival / treated × 100 %: 50%
[1]; 22 mg/kg intraperitoneally, survival day 15
  Survival / treated × 100 %: 50%
[1]; 22 mg/kg intraperitoneally, survival day 20
  Survival / treated × 100 %: 50%
[1]; 22 mg/kg, day not stated (footnote to Table VIII)
  survival rate: 50%
[16]; 2.5 mg/mouse per day
  growth of the ascites tumor: inhibits growth of the ascites tumor
[16]
  life span of the antibiotic treated mice: prolonged
[17]
  signs of toxicity: No signs of toxicity were observed
Solubility; acetone, chloroform, benzene, ethylacetate, ethanol, methanol, 1% aqueous sodium hydroxide solution, and pyridine
  Solubility: Soluble
Solubility; benzene, ethyl acetate, acetone, ethanol 1% NaOH
  Solubility: Soluble
Solubility; ether
  Solubility: Sparingly soluble
Solubility; water
  Solubility: water insoluble
Solubility; water and 5% aqueous hydrochloric acid
  Solubility: Insoluble
bacteria
  antibacterial activity: no antibacterial
mycoplasma
  antimycoplasmal activity: no antibacterial and antimycoplasmal activity
yeasts
  inhibitory activity against some yeasts: inhibitory activity against some yeasts
[18]; 2.5 mg/kg
  concentration at 10 min: 1800 ng/mL
  concentration at 0.5 h: 580 ng/mL
[18]; 25 mg/kg
  concentration at 10 min: 2900 ng/mL
  concentration at 0.5 h: 2400 ng/mL

## C=C/C(C)=C/[C@H](C)C(=O)C[C@H](O)CC1CC(=O)NC(=O)C1 [Streptimidone]
[19]; benzene, ethyl acetate, acetone, ethanol
  Solubility: Soluble
[19]; water
  Solubility: insoluble
